Consider 13 compounds from patent publication US5908841A, “5,11-dihydro-6H-dipyrido[3,2-b:2',3'-e]azepine-6-ones and their use in the prevention of treatment of HIV infection” (priority 1998, dated 1999).

The experiment deals with T1, HIV-1 reverse transcriptase, wild type (WT) (Human immunodeficiency virus type 1 group M subtype B, UniProt P03367).
T1 construct: Reverse transcriptase enzyme from the LAV strain of Human Immunodeficiency Virus (HIV-1); made in house; host or cells: Escherichia coli JM109 (clone pBRTprtl+ in vector pIBI21)
Nature of the experiment: Reverse Transcriptase Assay, wild type (WT) enzyme (RNA-dependent DNA polymerase activity; poly r(C)/oligo d(G), 3H-dGTP). The note with it: wild type (WT) RT. The experiment is classed as biochemical, HIV-1 (LAV strain). The text has this:
Utilizing the Reverse Transcriptase (RT) Assay described below, compounds can be tested for their ability to inhibit the RNA-dependent DNA polymerase activity of HIV-1 RT. Certain specific compounds described in the Examples which appear below, were so tested.
Among the enzymes for which Human Immunodeficiency Virus (HIV-1) encodes is a reverse transcriptase (1), so-named because it transcribes a DNA copy from an RNA template. This activity can be quantitatively measured in a cell-free enzyme assay, which has been previously described (2), and is based upon the observation that reverse transcriptase is able to use a synthetic template [poly r(C) primed with oligo d(G)] to transcribe a radio-labelled, acid-precipitable DNA strand utilizing ^3 H-dGTP as a substrate. The assay described below utilizes the wild type (WT) enzyme, which is the predominant form of the enzyme observed in patients infected with HIV-1. Utilization of mutant RT enzymes (Y181C and Y181L, prepared by site-directed mutagenesis in which the tyrosine residue at codon 181 has been replaced by a cysteine or a leucine residue, respectively) and analogous assay conditions allows compounds to be evaluated for their effectiveness at inhibiting these mutant enzymes.
a) Preparation of the wild type enzyme Reverse transcriptase enzyme from the LAV strain of Human Immunodeficiency Virus (HIV-1) (1) was isolated from the bacterial strain JM109 (3) expressing the DNA clone pBRTprtl+ (2) which is under the control of the lac promotor in the expression vector pIBI21 (4). An overnight culture grown in 2XYT medium (37° C., 225 rpm) (5) supplemented with 100 μg/mL ampicillin for positive selection is inoculated at a 1:40 dilution into M9 medium supplemented with 10 μg/mL thiamine, 0.5% casamino acids, and 50 μg/mL ampicillin (5). The culture is incubated (37° C., 225 rpm) until it reaches an OD540 of 0.3-0.4. At that time the repressor inhibitor IPTG (isopropyl β-D-thiogalactopyranoside) is added to 0.5 mM, and the mixture is incubated for 2 additional hours. Bacteria are pelleted, resuspended in a 50 mM Tris, 0.6 mM EDTA, 0.375M NaCl buffer and digested by the addition of lysozyme (1 mg/mL) for 30 minutes on ice. The cells are lysed by the addition of 0.2% NP-40 and brought to 1M NaCl.
After removal of the insoluble debris by centrifugation, the protein is precipitated by the addition of 3 volumes of saturated aqueous ammonium sulfate. The enzyme is pelleted, resuspended in RT buffer (50 mM Tris pH 7.5, 1 mM EDTA, 5 mM DTT, 0.1% NP-40, 0.1M NaCl, and 50% glycerol), and stored at -70° C. for further use.
b) Composition of 2× concentrated stock reaction mixture
[poly r(C)/oligo d(G)] (5:1)
The 2× concentrated stock reaction mixture is aliquoted and stored at -20° C. The mixture is stable and thawed for use in each assay. This enzyme assay has been adapted to a 96 well microtiter plate system, and has been previously described (6). Tris buffer (50 mM, pH 7.4), vehicle (solvent diluted to match the compound dilution), or compounds in vehicle are dispensed into 96-well microtiter plates (10 μL/well; 3 wells/compound). The HIV-1 RT enzyme is thawed, diluted in 50 mM Tris pH 7.4 so that fifteen μL of diluted enzyme contain 0.001 Unit (one unit is that amount of enzyme to transform 1 micromole of substrate per minute at 25° C.), and fifteen μL are dispensed per well. Twenty μL of 0.12-0.5M EDTA are added to the first three wells of the microtiter plate. EDTA chelates the Mg^++ present and prevents reverse transcription. This group serves as background polymerization which is subtracted from all other groups. Twenty-five μl of the 2× reaction mixture are added to all wells and the assay is allowed to incubate at room temperature for 60 minutes. The assay is terminated by precipitating the DNA in each well with 50 μL of 10% trichloracetic acid (TCA) (10% w/v) in sodium pyrophosphate (1% w/v). […]
In turn, `CCC1c2ncccc2N(C)C(=O)c2ccc[n+]([O-])c21` (stereo not shown) [Example 1, 5,11-Dihydro-11-ethyl-5-methyl-10-oxo-6H-dipyrido[3,2-b:2',3'-e]azepin-6-on] returned an inhibition at 1 µM of 68%.

Regarding `CCC1c2ncccc2C(=O)N(C)c2cccnc21` (stereo not shown) [Example 2, 5,11-Dihydro-11-ethyl-5-methyldipyrido[3,2-b:2',3'-e]azepine-6-one], at 1 µM the inhibition was 62%. In the case of `CCCC1c2ncccc2C(=O)N(C)c2cccnc21` (stereo not shown) [Example 3, 5,11-Dihydro-11-propyl-5-methyldipyrido[3,2-b:2',3'-e]azepine-6-one] it was 64%.

On to `CCC1(C)c2ncccc2C(=O)N(C)c2cccnc21` (stereo not shown) [Example 4, 5,11-Dihydro-11-ethyl-11-methyl-5-methyldipyrido[3,2-b:2',3'-e]azepine-6-one], for which the inhibition at 1 µM stood at 68%. With `CCC1(CC)c2ncccc2C(=O)N(C)c2cccnc21` [Example 5, 5,11-Dihydro-11-diethyl-5-methyldipyrido[3,2-b:2',3'-e]azepine-6-one], at 1 µM the inhibition was 62%. With `CN1C(=O)c2cccnc2C2(CCCC2)c2ncccc21` [Example 6, 5,11-Dihydro-11-spirocyclopentyl-5-methyldipyrido[3,2-b:2',3'-e]azepine-6-one], the inhibition at 1 µM was 62%. In turn, `CCC1c2nc(OC)ccc2N(C)C(=O)c2ccc[n+]([O-])c21` (stereo not shown) [Example 7, 5,11-Dihydro-11-ethyl-2-methoxy-5-methyl-10-oxodipyrido[3,2-b:2',3'-e]azepine-6-one] returned an inhibition at 1 µM of 75%. Compound `CCC1c2ncccc2C(=O)N(C)c2ccc(OC)nc21` (stereo not shown) [Example 8, 5,11-Dihydro-11-ethyl-2-methoxy-5-methyl-dipyrido[3,2-b:2',3'-e]azepine-6-one] returned an inhibition at 1 µM of 84%. With `CCC1(CC)c2ncccc2C(=O)N(C)c2ccc(OC)nc21` [Example 9, 5,11-Dihydro-11-diethyl-2-methoxy-5-methyl-dipyrido[3,2-b:2',3'-e]azepine-6-one], the inhibition at 1 µM was 66%. Consider `COc1ccc2c(n1)C(SC)c1c(ccc[n+]1[O-])C(=O)N2C` (stereo not shown) [Example 10, 5,11-Dihydro-11-methylthio-2-methoxy-5-methyl-10-oxodipyrido[3,2-b:2',3'-e]azepine-6-one], for which 1 µM produced 91% inhibition. In turn, `COc1ccc2c(n1)C(SC)c1ncccc1C(=O)N2C` (stereo not shown) [Example 11, 5,11-Dihydro-11-methylthio-2-methoxy-5-methyl-dipyrido[3,2-b:2',3'-e]azepine-6-one] gave an inhibition at 1 µM of 80%. For the compound `COc1ccc2c(n1)C(C)(SC)c1ncccc1C(=O)N2C` (stereo not shown) [Example 12, 5,11-Dihydro-11-methyl-11-methylthio-2-methoxy-5-methyl-dipyrido[3,2-b:2',3'-e]azepine-6-one], the inhibition at 1 µM was 41%. In the case of `CCC1c2ncccc2C(=O)N(C)c2ccc(-c3cn[nH]c3)nc21` (stereo not shown) [Example 13, 5,11-Dihydro-11-ethyl-2-(4-pyrazolyl)-5-methyl-dipyrido[3,2-b:2',3'-e]azepine-6-one], the inhibition at 1 µM came out at 80%.

The term inhibition denotes the share of the control response that was lost under treatment. A lower inhibition goes with a response near the control.
